Assay results reported in patent publication US20080003660A1, “Use of fast-release pristinamycin-type and polyether ionophore type antimicrobial agents in the production of ethanol” (priority 2006, published 2008).

Tests used:
[1] = type: physicochemical
Excerpt: In one embodiment, the liquid phase of the slurry comprises water and up to 25%, for example between 15% and 23%, of ethanol. This ethanol will pre-dissolve a very small portion of the antimicrobial agents from the particles, giving the injected slurry a small but almost instantaneous punch.

[2] = pH in the fermenters; cited from earlier work
[3] = dissolution of 0.1 gram powder in 4 liters of stirred water; type: physicochemical; conditions: 5.2 to 10 micron average particle size, 0.1 gram in 4 liters water, continuously stirred
Excerpt: The over-riding factor in controlling pests such as lactobacilli, however, is the rate of dissolution of small granular pristinamycin-type antimicrobial agents and polyether ionophore-type antimicrobial agents in water or mash. A 0.1 gram sample of a 5.2 to 10 micron average particle size virginiamycin was placed in a beaker with 4 liters of water, and the composition was continuously and vigorously stirred (providing very good mixing and turbulence). The presence of undissolved crystals was very evident. […] Such slow dissolution will reduce effectiveness of pulse treatments as it takes a long time for the added agents to become solubilized and effective, and will reduce the highest concentration of added agents resulting from a pulsed addition as some of the agent may be removed from the fermentator or other tank before the maximum amount of added agent is solubilized, and because some added agent may not dissolve at all. The solubility of monensin, virginiamycin, and similar pristinamycin-type antimicrobial agents and polyether ionophore-type antimicrobial agents in water is very low. Much more important, however, is the rate of dissolution of small granular pristinamycin-type antimicrobial agents and polyether ionophore-type antimicrobial agents in water. […]

[4] = stability in water (hydrolysis); type: physicochemical
Method: In another embodiment at least a portion of said antimicrobial agent is added to the mash as a composition comprising particles comprising said substantially water insoluble antimicrobial agent(s), said composition being in the form of a slurry. In another embodiment at least a portion of said antimicrobial agent is added to the mash as a composition comprising particles comprising said substantially water insoluble antimicrobial agent(s) and having a weight mean average diameter of between 0.1 and 2 microns, said composition being in the form of a slurry. Many of the preferred antimicrobial agents have a slight instability when dissolved in water, which can be significant over long storage periods. […] Coating particles with protectorants will reduce stability problems. Placing the slurry in a […] substantially water-free material, be it fatty acids, surfactants, dispersants, solvents in which the antimicrobial agents have minimal solubility (called an “oil flowable slurry”), or any combination of the above can reduce loss of antimicrobial agent. […] An oil-flowable slurry can be readily prepared by milling the antimicrobial agents as described herein, but where the solvent replaces the water in the milling process. […]

L. plantarum = assay: development of resistance test, 10 week duration; type: cell-based; conditions: 10 week duration of the test
Excerpt: One very effective control program involves the introduction of pristinamycin-type antimicrobial agents, and particularly virginiamycin, to the process. […] Usually, the “waste” byproduct, known as “Dried Distillers Grains with solubles (DDGS), is sold as animal feed, going 45% to dairy, 35% to beef, 15% to swine, and 5% to poultry industries. This is an important factor in the profitability of an ethanol production process, and the total amount of this byproduct produced per year is on the order of 3.5 million metric tons per year. The presence of residual antimicrobial agents in this material can adversely affect the value of this byproduct, as small residual amounts of antimicrobial agents in feed will promote the development of agent-resistant microorganisms. We have tested DDG samples from 8 major ethanol producers using virginiamycin to control microorganisms and found no detectable amount of virginiamycin in the DDG (<1 ppm via the validated Eurofins analysis and <1 ppb via an unvalidated experimental analytical procedure). […] Generally, however, the virginiamycin in mash is destroyed by drying so virginiamycin must be re-added to the feed if so desired. Other effective control programs employ polyether ionophore antimicrobial agents, which provide many of the benefits obtained with pristinamycin-type antimicrobial agents. […]

[5] = cited from earlier work

Compound	solubility in water/ethanol [1]	inactivation at fermenter pH [2]	also measured
CC[C@@]1([C@@H]2O[C@@H]([C@H]3O[C@@](O)(CO)[C@H](C)C[C@@H]3C)C[C@@H]2C)CC[C@H]([C@]2(C)CC[C@]3(C[C@H](O)[C@@H](C)[C@@H]([C@@H](C)[C@@H](OC)[C@H](C)C(=O)O)O3)O2)O1 [monensin]	high solubility		
[H]/N=C(/N)N[C@H]1[C@H](O)[C@@H](O)[C@H](O[C@@H]2O[C@@H](C)[C@](O)(C=O)[C@H]2O[C@@H]2O[C@@H](CO)[C@H](O)[C@@H](O)[C@@H]2NC)[C@@H](N/C(N)=N\[H])[C@@H]1O [streptomycin]		partially inactivated	
penicillin		partially inactivated	
virginiamycin	high solubility		time before only a few crystals remained visible [3]: on the order of an hour; stability when in water [4]: slow hydrolysis; time for L. plantarum to develop resistance (L. plantarum): no development of resistance; solubility in water [5]: 0.0001 grams/l
